Data reported in patent US8273769B2, “Phenoxy acetic acid derivatives” (Merck Serono SA, priority 2009, dated 2012).

Experiments:
CRTH2 [1] = target: T1, CRTH2 (Homo sapiens, UniProt Q9Y5Y4); test: [35S]GTPγS binding assay (CHO-CRTH2 cell membranes); format: biochemical; design: expressed in transfected cells; host or cells: CHO-CRTH2 cells; conditions: for IC50: antagonist mode, fixed concentration of PGD2 (EC80)
T1 sequence (Q9Y5Y4 1-395): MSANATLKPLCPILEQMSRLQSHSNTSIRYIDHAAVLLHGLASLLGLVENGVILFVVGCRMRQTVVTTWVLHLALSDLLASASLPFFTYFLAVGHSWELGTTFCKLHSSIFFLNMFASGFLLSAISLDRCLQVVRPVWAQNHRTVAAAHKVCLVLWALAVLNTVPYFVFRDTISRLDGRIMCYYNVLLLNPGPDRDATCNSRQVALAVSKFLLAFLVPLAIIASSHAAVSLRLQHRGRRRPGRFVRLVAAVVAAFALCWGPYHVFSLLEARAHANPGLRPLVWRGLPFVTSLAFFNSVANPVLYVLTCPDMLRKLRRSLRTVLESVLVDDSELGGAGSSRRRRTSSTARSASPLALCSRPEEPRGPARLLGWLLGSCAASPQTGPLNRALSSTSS
Procedure: Adherent CHO cells expressing hCRTH2 (Euroscreen, Belgium) were cultured in 225 cm^2 cell culture flasks (Corning, USA) in 30 ml of medium. After two rinses of phosphate buffered saline (PBS), cells were harvested in 10 ml of PBS containing 1 mM EDTA, centrifuged at 500×g for 5 min at 4° C. and frozen at −80° C. The pellet was re-suspended in 50 mM Tris-HCl, pH 7.4, 2 mM EDTA, 250 mM Sucrose, containing protease inhibitor cocktail tablets, (Complete EDTA-free, Roche, Germany) and incubated 30 min at 4° C. Cells were disrupted by nitrogen cavitation (Parr Instruments, USA) at 4° C. (800 p.s.i. for 30 min), and centrifuged at 500×g for 10 min at 4° C. Pellet containing nuclei and cellular debris was discarded and supernatant was centrifuged 60 min at 4° C. at 45000×g. Membrane pellet was re-suspended in storage buffer (10 mM HEPES/KOH pH 7.4, 1 mM EDTA, 250 mM sucrose, protease inhibitor cocktail tablets) using Dounce homogenization and frozen in liquid nitrogen, and stored at −80° C.
The [^35S]GTPγS assay measures the increase in guanine nucleotide exchange at G-proteins in cell membranes, resulting from agonist (PGD2) binding to CRTH2. This process can be monitored in vitro by incubating cell membranes containing G-proteins and CRTH2 with GDP and [^35S]GTPγS, a radiolabeled, hydrolysis-resistant analogue of GTP (see, Harrison et al., Life Sciences 74, 489-508, 2003). The addition of a Compounds of Formula (I) results in binding to CRTH2 and thus in an inhibition of agonist binding, which can be monitored as inhibition of the stimulation of GTP/GDP exchange.
Briefly, Compounds of Formula (I) are incubated in 96-well scintillating white polystyrene plates (Perkin Elmer, USA) in a final volume of 200 μl containing 20 mM HEPES/KOH pH 7.4, 3 mM MgCl2, 10 μg/ml Saponin, 5 μM GDP, 75 mM NaCl and 2% of dimethylsulphoxide (DMSO). Reaction is triggered by the addition of 5-10 μg of CHO-CRTH2 cell membranes and 0.15 nM [^35S]GTPγS. After 60 min incubation at 30° C., reaction is stopped by centrifugation at 700×g, at 4° C. for 10 minutes and supernatant is removed. The radioactivity coming from the [^35S]GTPγS bound on centrifuged cell membranes is recorded using a 1450 Micro-beta scintillation counter. For IC50 determination, increasing concentrations of compounds are incubated in presence of a fixed concentration of PGD2 (EC80). For EC50 measurements, compounds are incubated without addition of PGD2. Basal [^35S]GTPγS activity is determined without addition of any ligands or compounds. 100% [^35S]GTPγS activity is measured by the addition of 1 μM of PGD2.

CRTH2 [2] = target: T1, CRTH2; test: Radioligand binding Scintillation Proximity Assay ([3H]PGD2, hCRTH2-CHO cell membranes); design: host or cells: CHO cells; conditions: 1.5 nM [3H]PGD2, hCRTH2-CHO cell membranes, SPA
In short: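 SPA competition binding at room temperature, 90 min with agitation: 1.5 nM [3H]PGD2, 10-50 μg/ml hCRTH2-CHO membrane protein, WGA SPA beads, HEPES pH 7.4 with 10 mM MnCl2, 1% DMSO. Non-specific binding defined with 10 μM PGD2; scintillation counting.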

CRTH2 [3] = target: T1, CRTH2; test: Cellular Dielectric Spectroscopy (CHO-CRTH2 cells); format: cell-based; design: expressed in transfected cells; host or cells: CHO-CRTH2 cells; conditions: for IC50: antagonist mode, fixed concentration of PGD2 (EC80); for EC50 / Emax: partial agonists, agonist activity without PGD2
Procedure: Cellular Dielectric Spectroscopy (CDS) is a label-free technology based on the measurement of complex impedance changes (delta Z or dZ). Impedance (Z) is related to the ratio of voltage to current as described by Ohm's law (Z=V/I). In order to measure the changes in impedance that occur in response to receptor stimulation, mammalian cells are seeded onto a custom 96-well microliter plate that contains electrodes at the bottom of each well. Key contributors to the impedance measurements are changes in cell-substrate adherence, changes in cell shape and volume, and changes in cell-cell interactions. These factors individually or collectively affect the flow of current, influencing the magnitude and characteristics of the signal measured. G-protein coupled receptors ligand-induced activity can be measured using this technology and specific G protein coupling can be identified. Activities of reference agonist and antagonist molecules of CRTH2 have been measured using this assay and similar results were obtained compared to different functional assays.
CHO-CRTH2 cells are cultured in HAM's F12 (Lonza, Switzerland) supplemented with 10% foetal calf serum (PAA, Australia) and 400 μg/ml Geneticin. 100000 cells/well are seeded in standard 96W Microplates (MDS Analytical Technologies) and incubated at 37° C. in 5% CO2 for 24 hours. Cells are washed twice with 135 μl of cell key buffer (Hank's Balanced Salt Solution 1× (HBSS) (Invitrogen) supplemented with 10 mM HEPES pH 7.4 in presence of 1% DMSO). For EC50 determination. 15 μl of increasing concentration of Compounds of Formula (I) diluted in cell key buffer are added to the cells and agonist activity is then recorded for 25 minutes. […] Results are expressed as the amplitude between the highest and the lowest signal produced (max-min). Basal and maximum activities are measured, respectively in absence or presence of PGD2 (EC80).

[4] = inverse agonists, 100% of Emax = activity with 1 μM PGD2

| Compound | IC50 (CRTH2 [1]) [µM] | IC50 (CRTH2 [2]) [µM] | IC50 (CRTH2 [3]) [µM] | other results |
| --- | --- | --- | --- | --- |
| CCCS(=O)(=O)c1ccc(F)c(C#Cc2cc(Cl)ccc2OC(C)C(=O)O)c1 (stereo not drawn) [Example 168, 2-(4-chloro-2-{[2-fluoro-5-(propylsulfonyl)phenyl]ethynyl}phenoxy)propanoic acid] | 0.009 | 0.003 | – | Emax (CRTH2 [1]; [4]): -13% |
| O=C(O)COc1ccc(Cl)cc1C#Cc1ccccc1Cl [Example 4, {4-chloro-2-[(2-chlorophenyl)ethynyl]phenoxy}acetic acid] | 0.037 | 0.015 | – | – |
| Cc1ccc(S(=O)(=O)c2ccccc2)cc1C#Cc1cc(Cl)ccc1OCC(=O)O [Example 95, (4-chloro-2-{[2-methyl-5-(phenylsulfonyl)phenyl]ethynyl}phenoxy)acetic acid] | 0.01 | 0.009 | 0.084 | Emax (CRTH2 [1]; [4]): -17% |
| CS(=O)(=O)c1cc(C#Cc2cc(Cl)ccc2OCC(=O)O)ccc1-c1ccccc1 [Example 140, (4-chloro-2-{[2-(methylsulfonyl)biphenyl-4-yl]ethynyl}phenoxy)acetic acid] | 0.037 | 0.006 | – | Emax (CRTH2 [1]; [4]): -11% |
| CCCS(=O)(=O)c1ccc(C)c(C#Cc2cc(Cl)ccc2OC(C)C(=O)O)c1 (stereo not drawn) [Example 173, 2-(4-chloro-2-{[2-methyl-5-(propylsulfonyl)phenyl]ethynyl}phenoxy)propanoic acid] | 0.007 | 0.001 | – | – |
| CS(=O)(=O)c1ccc(Cl)c(C#Cc2cc(Cl)ccc2OCC(=O)O)c1 [Example 59, (4-chloro-2-{[2-chloro-5-(methylsulfonyl)phenyl]ethynyl}phenoxy)acetic acid] | 0.006 | 0.006 | 0.014 | – |
| CCCc1ccncc1C#Cc1cc(Cl)ccc1OCC(=O)O [Example 42, {4-chloro-2-[(4-propylpyridin-3-yl)ethynyl]phenoxy}acetic acid] | 0.01 | 0.005 | 0.025 | – |
| O=C(O)COc1ccc(Cl)cc1C#Cc1cccc(Cl)c1 [Example 3, {4-chloro-2-[(3-chlorophenyl)ethynyl]phenoxy}acetic acid] | 0.105 | 0.026 | – | – |
| CCCS(=O)(=O)c1cccc(C#Cc2cc(C#N)ccc2OCC(=O)O)c1 [Example 32, (4-cyano-2-{[3-(propylsulfonyl)phenyl]ethynyl}phenoxy)acetic acid] | 0.185 | 0.025 | – | – |
| O=C(O)COc1ccc(Cl)cc1C#Cc1cccc(S(=O)(=O)CCO)c1 [Example 20, [4-chloro-2-({3-[(2-hydroxyethyl)sulfonyl]phenyl}ethynyl)phenoxy]acetic acid] | 0.288 | 0.012 | – | – |
| CCCS(=O)(=O)c1ccc(C)c(C#Cc2cc(C#N)ccc2OCC(=O)O)c1 [Example 40, (4-cyano-2-{[2-methyl-5-(propylsulfonyl)phenyl]ethynyl}phenoxy)acetic acid] | 0.039 | 0.009 | – | – |
| CC(=O)Nc1ccc(C#Cc2cc(Cl)ccc2OCC(=O)O)cc1 [Example 152, (2-{[4-(acetylamino)phenyl]ethynyl}-4-chlorophenoxy)acetic acid] | – | 0.028 | – | Emax (CRTH2 [1]; [4]): -13% |
| Cc1ccncc1C#Cc1cc(C#N)ccc1OCC(=O)O [Example 44, {4-cyano-2-[(4-methylpyridin-3-yl)ethynyl]phenoxy}acetic acid] | – | 0.06 | – | Emax (CRTH2 [1]; partial agonist, without PGD2, 100% = activity with 1 μM PGD2): 13%; EC50 (CRTH2 [1]; partial agonist, without addition of PGD2): 0.04 µM; EC50 (CRTH2 [3]): 0.115 µM; Emax (CRTH2 [3]): 59% |
| CCCS(=O)(=O)c1cccc(C#Cc2cc(C(F)(F)F)ccc2OCC(=O)O)c1 [Example 55, [2-{[3-(propylsulfonyl)phenyl]ethynyl}-4-(trifluoromethyl)phenoxy]acetic acid] | – | 0.013 | – | EC50 (CRTH2 [3]): 0.024 µM; Emax (CRTH2 [3]): 62% |
| CCCc1ccc(S(C)(=O)=O)cc1C#Cc1cc(C#N)ccc1OCC(=O)O [Example 56, (4-cyano-2-{[5-(methylsulfonyl)-2-propylphenyl]ethynyl}phenoxy)acetic acid] | 0.049 | 0.03 | 0.053 | – |
| Cc1ccc(S(=O)(=O)CCCO)cc1C#Cc1cc(Cl)ccc1OCC(=O)O [Example 54, [4-chloro-2-({5-[(3-hydroxypropyl)sulfonyl]-2-methylphenyl}ethynyl)phenoxy]acetic acid] | – | 0.01 | 0.037 | – |
| CCCS(=O)(=O)c1cccc(C#Cc2cc(-c3ccccc3)ccc2OCC(=O)O)c1 [Example 131, [(3-{[3-(Propylsulfonyl)phenyl]ethynyl}biphenyl-4-yl)oxy]acetic acid] | – | 0.024 | – | EC50 (CRTH2 [3]): 0.074 µM; Emax (CRTH2 [3]): 68% |
| CC(C)Cc1ccncc1C#Cc1cc(Cl)ccc1OCC(=O)O [Example 43, {4-chloro-2-[(4-isobutylpyridin-3-yl)ethynyl]phenoxy}acetic acid] | – | 0.006 | 0.269 | – |
